Measurements reported in ChEMBL document CHEMBL4130575, “Sucupiranins A-L, Furanocassane Diterpenoids from the Seeds of Bowdichia virgilioides” (J Nat Prod, 2017).

Key:
[1] = tested on: Plasmodium falciparum; test: Antimalarial activity against Plasmodium falciparum K1 infected in human erythrocytes after 72 hrs by lactate dehydrogenase assay; assay type: functional, organism-based; details: K1, 72 h
[2] = Cytotoxicity against human MRC5 cells assessed as decrease in cell viability after 7 days by MTT assay; assay type: cell-based
[3] = Selectivity index, ratio of CC50 for human MRC5 cells to IC50 for Plasmodium falciparum K1; assay type: toxicity; details: read-out: Ratio CC50/IC50
[4] = tested on: RAW264.7; test: Antiinflammatory activity in mouse RAW264.7 cells assessed as inhibition of LPS-induced nitric oxide production preincubated for 3 hrs followed by LPS challenge measured after 20 hrs by Griess assay; assay type: functional, cell-based
[5] = tested on: HeLa; test: Cytotoxicity against human HeLa cells after 48 hrs by CCK8 assay; assay type: functional, cell-based
[6] = tested on: HL-60; test: Cytotoxicity against human HL60 cells after 48 hrs by CCK8 assay; assay type: functional, cell-based; details: HL-60, 48 h

Structure (SMILES) | IC50 [1] [µM] | also measured
COC(=O)[C@@H]1c2ccoc2C[C@H]2[C@H]1[C@@H](OC(C)=O)[C@@H]1OC(=O)[C@]3(C)CCC[C@@]2(C)[C@@H]13 | > 30 | –
COC(=O)[C@@H]1c2ccoc2C[C@H]2[C@H]1[C@@H](O)[C@H](O)[C@H]1C(C)(C)CCC[C@]21C | 22.9 | CC50 at 168 h [2]: > 276 µM; selectivity ratio [3]: > 12
COC(=O)[C@@H]1c2ccoc2C[C@H]2[C@H]1[C@@H](OC(C)=O)[C@H](O)[C@H]1C(C)(C)CCC[C@]21C | > 30.9 | –
COC(=O)[C@@H]1c2ccoc2C[C@H]2[C@H]1[C@@H](O)[C@H](O)[C@H]1[C@](C)(CO)CCC[C@]21C | – | IC50 [6]: 9.8 µM
COC(=O)[C@@H]1c2ccoc2C[C@H]2[C@H]1[C@@H](OC(C)=O)[C@H](O)[C@@H]1[C@]2(C)CCC[C@@]1(C)C(=O)OC | > 27.9 | –
C[C@@H]1CC[C@H]2[C@@H](C)C(=O)O[C@@H]3O[C@@]4(C)CC[C@@H]1[C@]32OO4 [ARTEMISININ] | 0.025 | –

The next lines start with results.

IC50 [1] [µM] | Structure (SMILES) | also measured
> 28.8 | CC(=O)OC[C@@]1(C)CCC[C@]2(C)[C@H]3Cc4occc4[C@@](C)(O)[C@@H]3[C@@H](O)[C@H](OC(C)=O)[C@@H]12 | –
32.2 | CC(=O)O[C@H]1[C@H](O)[C@@H]2[C@H](Cc3occc3[C@@]2(C)O)[C@@]2(C)CCCC(C)(C)[C@H]12 | CC50 at 168 h [2]: 139 µM; selectivity ratio [3]: 4.3; IC50 [4]: 30.6 µM
> 27 | COC(=O)[C@@H]1c2ccoc2C[C@H]2[C@H]1[C@@H](OC(C)=O)[C@H](O)[C@H]1[C@](C)(COC(C)=O)CCC[C@]21C | –
23.5 | CC(=O)OC[C@@H]1c2ccoc2C[C@H]2[C@H]1C[C@H](OC(C)=O)[C@H]1C(C)(C)CCC[C@]21C | CC50 at 168 h [2]: 44.1 µM; IC50 [5]: 32.2 µM; IC50 [6]: 32.6 µM; selectivity ratio [3]: 1.9
> 30.9 | COC(=O)[C@@H]1c2ccoc2C[C@H]2[C@H]1[C@@H](O)[C@H](OC(C)=O)[C@H]1C(C)(C)CCC[C@]21C | –
